Data taken from patent US11225462B2, “Crystal forms of oxypyridine amide derivative and preparation method therefor” (JIANGSU HENGRUI MEDICINE CO., LTD., priority 2018, dated 2022).

Columns and labels:
[1] = DVS (dynamic vapor sorption) hygroscopicity characterization; assay type: physicochemical
Protocol: DVS refers to dynamic vapor sorption and is determined using SMS DVS Advantage at 25° C., with the humidity change of 50%-95%-0%-95%-50% and the stepping of 10% (5% for the last step) (the specific humidity range is determined in accordance with the corresponding plot, and the methods listed herein are those most commonly used), and the standard for determination is as follow: dm/dt is not more than 0.02%, and Tmax is not more than 360 min.

[2] = Influencing factor experiments (light, high temperature, high humidity, 30 days); assay type: physicochemical
Protocol: Crystal forms A, B, D and F of the compound of formula (I) were spread and left open to the air, and under conditions of high temperature (40° C. and 60° C.), light (4500 Lux), high humidity (RH 75% and RH 90%), the stability thereof were investigated for a period of 30 days.

[3] = Long-term and accelerated stability experiments (3 months); assay type: physicochemical
Protocol: The long-term (25° C., 60% RH) and accelerated (40° C., 75% RH) stability of crystal form A and crystal form F of the compound of formula (I) were investigated for 3 months.

[4] = reported in WO 2018041122; cited from earlier work
human blood = settings: reported in WO 2018041122; cited from earlier work
FXIa = FXIa (Homo sapiens, UniProt P03951); settings: reported in WO 2018041122; cited from earlier work
Chain of FXIa (P03951 388-625 limits assumed): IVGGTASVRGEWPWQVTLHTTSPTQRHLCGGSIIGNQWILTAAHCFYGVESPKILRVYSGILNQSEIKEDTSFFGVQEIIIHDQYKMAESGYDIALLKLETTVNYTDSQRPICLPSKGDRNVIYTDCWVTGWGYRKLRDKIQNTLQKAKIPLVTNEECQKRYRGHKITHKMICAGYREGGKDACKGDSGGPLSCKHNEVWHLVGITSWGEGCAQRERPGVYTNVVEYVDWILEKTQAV
Chain of FXIa (P03951 19-387 partner limits assumed): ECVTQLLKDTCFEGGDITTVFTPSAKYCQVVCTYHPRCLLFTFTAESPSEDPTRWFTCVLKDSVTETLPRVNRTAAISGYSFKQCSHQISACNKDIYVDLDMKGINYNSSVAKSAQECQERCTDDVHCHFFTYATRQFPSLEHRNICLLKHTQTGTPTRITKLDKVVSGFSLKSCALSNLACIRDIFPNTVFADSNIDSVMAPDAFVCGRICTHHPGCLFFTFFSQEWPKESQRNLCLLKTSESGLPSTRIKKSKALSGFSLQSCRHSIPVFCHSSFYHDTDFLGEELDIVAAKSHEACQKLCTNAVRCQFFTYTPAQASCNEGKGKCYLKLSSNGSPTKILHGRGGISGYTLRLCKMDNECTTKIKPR

CCC(=O)c1ccc(Cl)cc1-c1cc(=O)n([C@@H](CCOC(C)(C)C)C(=O)Nc2ccc(C(=O)O)cc2)cc1OC [Crystal form F, (S)-4-(4-(tert-butoxy)-2-(4-(5-chloro-2-propionylphenyl)-5-methoxy-2-oxopyridin-1(2H)-yl)butanamido)benzoic acid]
mass increase under normal conditions ([1]; 25° C. and 60% RH): about 0.0457% | hygroscopicity according to guidelines for drug hygroscopicity test in China Pharmacopoeia (2015 edition) ([1]; 25° C., 10% RH to 80% RH): hardly hygroscopic (less than 2%) | mass increase as the humidity increases ([1]; 25° C., 10% RH to 80% RH): about 0.1464% | mass increase under accelerated test conditions ([1]; 70% RH): about 0.0701% | mass increase under extreme conditions ([1]; 90% RH): about 0.2744% | crystal form before and after DVS detection (XRPD comparison) ([1]; after DVS detection): unchanged | desorption process and adsorption process of the sample ([1]; humidity change from 0% to 95%): basically coincide | % Purity ([2]; 40° C., 5 days): 99.67% | % Purity ([2]; 40° C., 10 days): 99.62% | % Purity ([2]; 40° C., 30 days): 99.57% | % Purity ([2]; 60° C., 5 days): 99.68% | % Purity ([2]; 60° C., 10 days): 99.65% | % Purity ([2]; 60° C., 30 days): 99.59% | % Purity ([2]; 4500 Lux, 5 days): 99.66% | % Purity ([2]; 4500 Lux, 10 days): 99.64% | % Purity ([2]; 4500 Lux, 30 days): 99.64% | % Purity ([2]; Initial condition, day 0): 99.67% | % Purity ([2]; RH 75%, 5 days): 99.65% | % Weight gain ([2]; RH 75%, 5 days): 5.23% | % Purity ([2]; RH 75%, 10 days): 99.63% | % Weight gain ([2]; RH 75%, 10 days): 5.34% | % Purity ([2]; RH 75%, 30 days): 99.62% | % Weight gain ([2]; RH 75%, 30 days): 10.03% | % Purity ([2]; RH 90%, 5 days): 99.66% | % Weight gain ([2]; RH 90%, 5 days): 7.26% | % Purity ([2]; RH 90%, 10 days): 99.63% | % Weight gain ([2]; RH 90%, 10 days): 8.40% | % Purity ([2]; RH 90%, 30 days): 99.65% | % Weight gain ([2]; RH 90%, 30 days): 12.83% | physical and chemical stability (conclusion) ([2]; light, 40° C., 60° C., 75% RH or 90% RH for 30 days): good physical and chemical stability | % Purity 1 month ([3]; 25° C., 60% RH): 99.68% | % Purity 2 months ([3]; 25° C., 60% RH): 99.65% | % Purity 3 months ([3]; 25° C., 60% RH): 99.65% | % Purity Initial condition ([3]; 25° C., 60% RH): 99.69% | % Purity 1 month ([3]; 40° C., 75% RH): 99.68% | % Purity 2 months ([3]; 40° C., 75% RH): 99.67% | % Purity 3 months ([3]; 40° C., 75% RH): 99.66% | % Purity Initial condition ([3]; 40° C., 75% RH): 99.69% | physical and chemical stability (conclusion) ([3]; long-term (25° C., 60% RH) and accelerated (40° C., 75% RH) conditions for 3 months): good physical and chemical stability

CCC(=O)c1ccc(Cl)cc1-c1cc(=O)n([C@@H](CCOC(C)(C)C)C(=O)Nc2ccc(C(=O)O)cc2)cc1OC [compound of formula (I), (S)-4-(4-(tert-butoxy)-2-(4-(5-chloro-2-propionylphenyl)-5-methoxy-2-oxopyridin-1(2H)-yl)butanamido)benzoic acid]
pharmacokinetic absorption [4]: good pharmacokinetic absorption | anticoagulant effect on human blood (human blood): significant anticoagulant effect | inhibitory effect on FXIa (FXIa): significant inhibitory effect
